Test [1] deals with human GABAA α1β3γ2 receptor (Homo sapiens (Human), UniProt P14867+P18507). As to the kind of experiment: Radioligand binding assay, competition for [3H]Flumazenil, γ2-containing GABAA subtypes. Particulars: for γ2/γ1 Selectivity Ratio: Ki α1β3γ2 (nM)/Ki α2β2γ1 (nM); for LogSel: Log[Ki α1β3γ2 (nM)/Ki α2β2γ1 (nM)]. The procedure: The affinity of compounds at GABAA γ2 subunit-containing receptors was measured by competition for [^3H]Flumazenil (81.1 Ci/mmol; Roche) binding to HEK293F cells expressing human (transiently transfected) receptors of composition α1β3γ2.
Harvested pellets from HEK293F cells expressing the different GABAA γ2 receptor subtypes were resuspended in Mannitol Buffer pH 7,2-7,4 and processed as described above for the cells expressing the GABAA γ1 subunit-containing receptors.
Assays were incubated to equilibrium for 1 hour at 4° C. and harvested onto GF/C uni-filters (Packard) by filtration using a Packard harvester and washing with ice-cold wash buffer (50 mM Tris; pH 7.5). After anhydrousing, filter-retained radioactivity was detected by liquid scintillation counting. Ki values were calculated using Excel-Fit (Microsoft) and are the means of two determinations.

The target of test [2] is human GABAA α5β2γ1 receptor (Homo sapiens (Human), UniProt P31644+Q8N1C3). The test is described as follows: Radioligand binding assay, competition for [3H]RO7239181, γ1-containing GABAA subtypes. On the procedure:
The affinity of compounds at GABAA γ1 subunit-containing receptors was measured by competition for [^3H]RO7239181 (67.3 Ci/mmol; Roche) binding to membranes from HEK293F cells (ThermoFisher R79007) expressing human (transiently transfected) receptors of composition α5β2γ1, α2β2γ1, α1β2γ1. For better protein expression of the α2 subunit-containing receptors, the 28 amino acid long signal peptide (Met1 to Ala28) of the human GABAA α2 subunit was substituted by the 31 amino acid long signal peptide (Met1 to Ser31) of human GABAA α5 subunit.
(§1) Harvested pellets from HEK293F cells expressing the different GABAA receptor subtypes were resuspended in Mannitol Buffer pH 7.2-7.4 (Mannitol 0.29 M, Triethylamine 10 mM, Acetic acid 10 mM, EDTA 1 mM plus protease inhibitors (20 tablets Complete, Roche Diagnostics Cat. No. 05 056 489 001 per liter)), washed two times and then resuspended at 1:10 to 1:15 dilution in the same buffer. Cell disruption was performed by stirring the suspension in a Parr vessel #4637 at 435 psi for 15 minutes, and then the suspensions were centrifuged at 1000×g for 15 minutes at 4° C. (Beckman Avanti J-HC; rotor JS-4.2). The supernatant (S1) was transferred in a 21 Schott flask and the pellet (P1) was resuspended with Mannitol Buffer up to 175 ml. The resuspended pellet was transferred into a 250 ml Corning centrifugal beaker and centrifuged at 1500×g for 10 minutes at 4° C. (Beckman Avanti J-HC; rotor JS-4.2). The supernatant (S1) was then transferred in the 21 Schott flask and the pellet was discarded. The supernatants (S1) were centrifuged in 500 ml Beckman polypropylene centrifugal beaker at 15'000×g for 30 minutes at 4° C. (Beckman Avanti J-20 XP; rotor JLA-10.500). The pellet (P2) was resuspended with Mannitol Buffer 1:1 and frozen at −80° C. The supernatant (S2) was centrifuged in 100 ml Beckman polypropylene centrifugal tubes at 48000×g for 50 minutes at 4° C. (Beckman Avanti J-20 XP; rotor JA-18). The supernatant (S3) was discarded and the pellet (P3) was resuspended with 1:1 Mannitol Buffer. The P2 and P3 protein concentration was determined with the BIORAD Standard assay method with bovine serum albumin as standard and measured on the NANO-Drop 1000. The membrane suspension was aliquots (500 μl per tube) and stored at −80° C. until required.
(§2) Membrane homogenates were resuspended and polytronised (Polytron PT1200E Kinematica AG) in Potassium Phosphate 10 mM, KCl 100 mM binding buffer at pH 7.4 to a final assay concentration determined with a previous experiment.
Radioligand binding assays were carried out in a volume of 200 μL (96-well plates) which contained 100 μL of cell membranes, [^3H]RO7239181 at a concentration of 1.5 nM (α5β2γ1) or 20-30 nM (α1β2γ1, α2β2γ1) and the test compound in the range of [0.3-10000]×10^−9 M. Nonspecific binding was defined by 10×10^−6 (α5β2γ1) and 30×10^−6 M RO7239181 and typically represented less than 5% (α5β2γ1) and less than 20% (α1β2γ1, α2β2γ1) of the total binding. Assays were incubated to equilibrium for 1 hour at 4° C. and then, membranes were filtered onto unifilter (96-well white microplate with bonded GF/C filters preincubated 20-50 minutes in 0.3% Polyethylenimine) with a Filtermate 196 harvester (Packard BioScience) and washed 4 times with cold Potassium Phosphate 10 mM pH 7.4, KCl 100 mM binding buffer. After anhydrousing, filter-retained radioactivity was detected by liquid scintillation counting. Ki values were calculated using Excel-Fit (Microsoft) and are the means of two determinations.

In test [3] the target is human GABAA α2β2γ1 receptor (Homo sapiens (Human), UniProt P47869+Q8N1C3). The description is as above. On the procedure: The affinity of compounds at GABAA γ1 subunit-containing receptors was measured by competition for [^3H]RO7239181 (67.3 Ci/mmol; Roche) binding to membranes from HEK293F cells (ThermoFisher R79007) expressing human (transiently transfected) receptors of composition α5β2γ1, α2β2γ1, α1β2γ1.
as §1, §2
Assays were incubated to equilibrium for 1 hour at 4° C. and then, membranes were filtered onto unifilter (96-well white microplate with bonded GF/C filters preincubated 20-50 minutes in 0.3% Polyethylenimine) with a Filtermate 196 harvester (Packard BioScience) and washed 4 times with cold Potassium Phosphate 10 mM pH 7.4, KCl 100 mM binding buffer. After anhydrousing, filter-retained radioactivity was detected by liquid scintillation counting. Ki values were calculated using Excel-Fit (Microsoft) and are the means of two determinations.

[4] abbreviates: Ki h-GABAA α2β2γ1, membranes of HEK293F cells, [3H]RO7239181 20-30 nM, Table 1.
The mark [5] stands for this setting: Ki h-GABAA α2β2γ1, membranes of HEK293F cells, [3H]RO7239181 20-30 nM, Table 2.
The mark [6] stands for this setting: HEK293F cells, [3H]Flumazenil 1 nM, Table 1, read-out: Ki h-GABAA α1β3γ2.

The results in this text go back to patent US20240294543A1, “CYCLOHEPTA-THIENO-DIAZEPINE DERIVATIVES AS GABA A GAMMA1 PAM” (Hoffmann-La Roche Inc., priority 2021, published 2024).

Like-named read-outs stand apart in the source and are kept apart here.

Broadly, the Ki is a measure of affinity in units of concentration, obtained from inhibition or displacement. Take `Cc1nnc2n1-c1sc3c(c1C(c1c(F)cccc1F)=N[C@H]2C)CC[C@@H](O)CC3` [Example 27, (7S,14R)-9-(2,6-difluorophenyl)-3,7-dimethyl-18-thia-2,4,5,8-tetrazatetracyclo[8.8.0.02,6.011,17]octadeca-1(10),3,5,8,11(17)-pentaen-14-ol]: the Ki is 11400 nM in test [1], 10.9 nM in test [2], 42.8 nM in test [3] (setting [4]) and 42.8 nM in test [3] (setting [5]). Moreover, in test [1] (Table 1), the “γ2/γ1 Selectivity Ratio” value worked out at 266.4. Also, in test [1] (Table 1), the LogSel was 2.43.
With `C[C@@H]1N=C(c2c(F)cccc2F)c2c(sc3c2COCCO3)-n2nc(C(=O)NC[C@@](C)(O)C(F)(F)F)nc21` [Example 46, (7S)-9-(2,6-difluorophenyl)-7-methyl-N-[(2R)-3,3,3-trifluoro-2-hydroxy-2-methyl-propyl]-13,16-dioxa-18-thia-2,3,5,8-tetrazatetracyclo[8.8.0.02,6.011,17]octadeca-1(10),3,5,8,11(17)-pentaene-4-carboxamide], the inhibitory constant (Ki) in test [1] (setting [6]) worked out at 4320 nM; in test [2], 3.54 nM; in test [3] (setting [4]), 15.2 nM; in test [3] (setting [5]), 15.2 nM. Moreover, the “γ2/γ1 Selectivity Ratio” value in test [1] (Table 1) is 284.3. The same compound returned a LogSel in test [1] (Table 1) of 2.45.
As to `C[C@@H]1N=C(c2c(F)cccc2F)c2c(sc3c2COC[C@H](C)O3)-n2nc(C(=O)N3CC(F)C3)nc21` [Example 40, [(7S,15S)-9-(2,6-difluorophenyl)-7,15-dimethyl-13,16-dioxa-18-thia-2,3,5,8-tetrazatetracyclo[8.8.0.02,6.011,17]octadeca-1(10),3,5,8,11(17)-pentaen-4-yl]-(3-fluoroazetidin-1-yl)methanone], the Ki stood at 11600 nM in test [1] (setting [6]), 2.65 nM in test [2], 20.5 nM in test [3] (setting [4]) and 20.5 nM in test [3] (setting [5]). For the same compound, the “γ2/γ1 Selectivity Ratio” value in test [1] (Table 1) stood at 568.5. This compound also gave a LogSel in test [1] (Table 1) of 2.75.
Turning to `Cc1nc2n(n1)-c1sc3c(c1C(c1c(F)cccc1F)=N[C@H]2C)CCCCC3` [Example 20, (7S)-9-(2,6-difluorophenyl)-4,7-dimethyl-18-thia-2,3,5,8-tetrazatetracyclo[8.8.0.02,6.011,17]octadeca-1(10),3,5,8,11(17)-pentaene], the Ki in test [1] was found to be 1280 nM; in test [2], 0.98 nM; in test [3] (setting [4]), 12.6 nM; in test [3] (setting [5]) it was 12.6 nM. In addition, the “γ2/γ1 Selectivity Ratio” value in test [1] (Table 1) is listed as 101.9. The same compound had a LogSel in test [1] (Table 1) of 2.01.
For the compound `C[C@@H]1N=C(c2c(F)cccc2F)c2c(sc3c2COCCC3)-n2cc(C(=O)NCC(C)(C)O)nc21` [Example 67, (7S)-9-(2,6-difluorophenyl)-N-(2-hydroxy-2-methyl-propyl)-7-methyl-13-oxa-18-thia-2,5,8-triazatetracyclo[8.8.0.02,6.011,17]octadeca-1(10),3,5,8,11(17)-pentaene-4-carboxamide], the Ki in test [1] (setting [6]) worked out at 1800 nM; in test [2], 7.4 nM; in test [3] (setting [4]), 21.3 nM; in test [3] (setting [5]) it was 21.3 nM. The “γ2/γ1 Selectivity Ratio” value in test [1] (Table 1) came to 84.5. The compound further came in with a LogSel in test [1] (Table 1) of 1.93.
In the case of `Cc1nnc2n1-c1sc3c(c1C(c1c(F)cccc1F)=N[C@H]2C)CC[C@@H](F)CO3` [Example 56, (7S,14R)-9-(2,6-difluorophenyl)-14-fluoro-3,7-dimethyl-16-oxa-18-thia-2,4,5,8-tetrazatetracyclo[8.8.0.02,6.011,17]octadeca-1(10),3,5,8,11(17)-pentaene], the Ki was determined as 11500 nM in test [1], 6.9 nM in test [2], 39.4 nM in test [3] (setting [4]) and 39.4 nM in test [3] (setting [5]). Besides, the “γ2/γ1 Selectivity Ratio” value in test [1] (Table 1) is on record as 290.8. For the same compound, in test [1] (Table 1), the LogSel worked out at 2.46.
For the compound `Cc1nnc2n1-c1sc3c(c1C(c1c(F)cccc1Cl)=N[C@H]2C)COCCO3` [Example 35, (7S)-9-(2-chloro-6-fluoro-phenyl)-3,7-dimethyl-13,16-dioxa-18-thia-2,4,5,8-tetrazatetracyclo[8.8.0.02,6.011,17]octadeca-1(10),3,5,8,11(17)-pentaene], the Ki in test [1] was 3940 nM; in test [2], 5.21 nM; in test [3] (setting [4]) it was 18.8 nM; in test [3] (setting [5]) it was 18.8 nM. The “γ2/γ1 Selectivity Ratio” value in test [1] (Table 1) is 209.5. This compound returned a LogSel in test [1] (Table 1) of 2.32.
On to `Cc1nnc2n1-c1sc3c(c1C(c1c(F)cccc1F)=N[C@H]2C)COCCC3` [Example 52, (7S)-9-(2,6-difluorophenyl)-3,7-dimethyl-13-oxa-18-thia-2,4,5,8-tetrazatetracyclo[8.8.0.02,6.011,17]octadeca-1(10),3,5,8,11(17)-pentaene], for which the inhibition constant Ki in test [1] came out at 2780 nM; in test [2] it was 7.6 nM; in test [3] (Ki h-GABAA α2β2γ1, Table 3, reference compounds and examples), 27.7 nM; in test [3] (setting [4]), 27.7 nM; in test [3] (setting [5]) it was 27.7 nM. Besides, the “γ2/γ1 Selectivity Ratio” value in test [1] (Table 1) and in test [1] (Table 3) was 100.3 each time. Besides, the LogSel in test [1] (Table 1) worked out at 2.00; in test [1] (Table 3), 2.0.
As for `Cc1nnc2n1-c1sc3c(c1C(c1c(F)cccc1F)=N[C@H]2C)CCCC[C@H]3F` (single isomer, unassigned) [Example 11], the Ki in test [1] was found to be 825 nM; in test [2] it was 2.7 nM; in test [3] (setting [4]), 17.4 nM; in test [3] (setting [5]), 17.5 nM. Also, in test [1] (Table 1), the “γ2/γ1 Selectivity Ratio” value came out at 47.3. This compound also yielded a LogSel in test [1] (Table 1) of 1.67.
Consider `Cc1nc2n(n1)-c1sc3c(c1C(c1c(F)cccc1F)=N[C@H]2C)COCCO3` [Example 28, (7S)-9-(2,6-difluorophenyl)-4,7-dimethyl-13,16-dioxa-18-thia-2,3,5,8-tetrazatetracyclo[8.8.0.02,6.011,17]octadeca-1(10),3,5,8,11(17)-pentaene], for which the Ki in test [1] was found to be 1940 nM; in test [2] it was 0.89 nM; in test [3] (setting [4]), 5.5 nM; in test [3] (setting [5]) it was 5.5 nM. The “γ2/γ1 Selectivity Ratio” value in test [1] (Table 1) amounted to 353.3. Moreover, the LogSel in test [1] (Table 1) was 2.55.
